We go through 14 molecules from ChEMBL document CHEMBL1137871, “Discovery of orally active prostaglandin D2 receptor antagonists” (Bioorg Med Chem Lett, 2004).

Some results are limits rather than exact numbers.

The term Ki denotes the dissociation constant of the complex between target and ligand, obtained from inhibition or displacement. What is called IC50 is the concentration that inhibits the measured activity by half. The inhibition in vivo is the relative decrease from the control value, in per cent. Lower therefore signals a response near the control.

Test [1] has as its target T1, Prostaglandin E2 receptor EP1 subtype (Mus musculus, UniProt P35375).
T1 sequence (P35375 whole entry): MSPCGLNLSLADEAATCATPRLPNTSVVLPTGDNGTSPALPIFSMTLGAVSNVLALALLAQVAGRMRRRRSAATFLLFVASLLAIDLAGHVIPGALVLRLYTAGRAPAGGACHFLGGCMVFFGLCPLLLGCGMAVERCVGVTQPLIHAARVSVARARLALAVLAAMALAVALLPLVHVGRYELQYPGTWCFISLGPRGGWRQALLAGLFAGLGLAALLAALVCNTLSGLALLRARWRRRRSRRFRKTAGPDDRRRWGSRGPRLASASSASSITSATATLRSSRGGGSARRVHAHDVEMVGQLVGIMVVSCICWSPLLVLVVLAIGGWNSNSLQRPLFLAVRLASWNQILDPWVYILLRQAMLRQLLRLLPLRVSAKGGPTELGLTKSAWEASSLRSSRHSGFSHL
Briefly: Ability to inhibit the binding of [3H]PGD-2 radioligand to membranes of CHO cells stably expressing mouse Prostaglandin E receptor EP1. It is filed as cell membranes.

Test [2] concerns the target Prostaglandin E2 receptor EP2 subtype (Mus musculus, UniProt Q62053). Put plainly: Ability to inhibit the binding of [3H]-PGD-2 radioligand to membranes of CHO cells stably expressing mouse Prostaglandin E receptor EP2. It is filed as cell membranes.
Test [3] addresses T2, Prostaglandin E2 receptor EP3 subtype (Mus musculus, UniProt P30557).
T2 sequence (P30557 whole entry): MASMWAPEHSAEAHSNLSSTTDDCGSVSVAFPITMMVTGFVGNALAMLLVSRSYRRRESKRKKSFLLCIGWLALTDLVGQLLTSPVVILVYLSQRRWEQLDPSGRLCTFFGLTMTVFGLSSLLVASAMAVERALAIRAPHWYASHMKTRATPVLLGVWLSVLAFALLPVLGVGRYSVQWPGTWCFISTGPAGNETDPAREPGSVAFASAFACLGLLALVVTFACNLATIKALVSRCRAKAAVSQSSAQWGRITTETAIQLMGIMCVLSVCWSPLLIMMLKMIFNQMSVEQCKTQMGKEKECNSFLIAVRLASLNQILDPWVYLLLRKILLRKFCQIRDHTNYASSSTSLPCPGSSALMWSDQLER
Briefly: Ability to inhibit the binding of [3H]PGD-2 radioligand to membranes of CHO cells stably expressing mouse Prostaglandin E receptor EP3. It is filed as cell membranes.

For test [4], the target named is T3, Prostaglandin D2 receptor (Homo sapiens, UniProt Q13258).
T3 sequence (Q13258 whole entry): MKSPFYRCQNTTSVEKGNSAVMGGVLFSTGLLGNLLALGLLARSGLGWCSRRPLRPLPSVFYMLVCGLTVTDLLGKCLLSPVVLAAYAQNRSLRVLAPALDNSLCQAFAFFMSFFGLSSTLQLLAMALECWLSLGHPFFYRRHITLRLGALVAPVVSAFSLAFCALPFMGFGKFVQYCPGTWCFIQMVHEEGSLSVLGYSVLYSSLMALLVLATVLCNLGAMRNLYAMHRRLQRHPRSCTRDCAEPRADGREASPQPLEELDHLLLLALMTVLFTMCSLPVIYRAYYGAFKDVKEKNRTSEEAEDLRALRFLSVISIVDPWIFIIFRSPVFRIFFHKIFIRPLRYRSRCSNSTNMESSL
Put plainly: Ability to inhibit the binding of [3H]PGD-2 radioligand to membranes of CHO cells stably expressing human Prostaglandin D2 receptor. It is filed as cell membranes.

In test [5] the target is T4, Prostaglandin D2 receptor (Mus musculus, UniProt P70263).
T4 sequence (P70263 whole entry): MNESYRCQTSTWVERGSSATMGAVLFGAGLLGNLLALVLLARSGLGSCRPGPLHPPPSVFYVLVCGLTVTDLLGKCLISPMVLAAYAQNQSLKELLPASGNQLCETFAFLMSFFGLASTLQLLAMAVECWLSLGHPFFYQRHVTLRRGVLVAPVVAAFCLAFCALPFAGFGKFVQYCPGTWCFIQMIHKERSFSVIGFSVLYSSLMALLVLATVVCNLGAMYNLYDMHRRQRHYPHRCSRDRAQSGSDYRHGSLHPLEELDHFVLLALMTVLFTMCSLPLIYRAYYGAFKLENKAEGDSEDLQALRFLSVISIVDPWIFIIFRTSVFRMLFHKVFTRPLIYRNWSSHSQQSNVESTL
Briefly: Ability to inhibit the binding of [3H]PGD-2 radioligand to membranes of CHO cells stably expressing mouse Prostaglandin D2 receptor. It is filed as cell membranes.

For test [6], the target named is Prostaglandin E2 receptor EP4 subtype (Mus musculus, UniProt P32240). Briefly: Ability to inhibit the binding of [3H]PGD-2 radioligand to membranes of CHO cells stably expressing mouse Prostaglandin E receptor EP4. It is filed as cell membranes.
Sequence of Prostaglandin E2 receptor EP4 subtype (P32240 whole entry): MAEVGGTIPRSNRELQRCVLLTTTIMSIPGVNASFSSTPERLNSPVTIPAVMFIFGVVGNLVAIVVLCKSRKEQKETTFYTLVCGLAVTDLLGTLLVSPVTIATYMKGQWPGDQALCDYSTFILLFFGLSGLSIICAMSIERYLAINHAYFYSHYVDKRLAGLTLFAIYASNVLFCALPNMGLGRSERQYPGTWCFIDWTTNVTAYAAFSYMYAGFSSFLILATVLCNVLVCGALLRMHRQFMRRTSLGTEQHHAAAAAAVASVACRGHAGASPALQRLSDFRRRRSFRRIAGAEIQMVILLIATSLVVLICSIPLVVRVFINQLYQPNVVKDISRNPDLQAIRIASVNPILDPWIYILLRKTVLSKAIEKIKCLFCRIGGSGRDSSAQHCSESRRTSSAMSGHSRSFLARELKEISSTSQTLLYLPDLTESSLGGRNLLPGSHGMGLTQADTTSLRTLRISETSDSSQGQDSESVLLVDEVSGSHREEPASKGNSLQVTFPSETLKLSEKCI
Test [7] concerns the target T3, Prostaglandin D2 receptor. Put plainly: Effect on the increase in cAMP formation induced by PGD-2 in the presence of bovine serum albumin in CHO cells expressing human Prostaglandin D2 receptor. It is filed as functional, cell-based.
For the next test, the system named is Cavia porcellus. Briefly: inhibitory effect of compound on PGD-2 (0.01%, 20 uL/eye) induced vascular permeability in guinea pig conjunctiva at an oral dose of 0.3 mg/kg.
For test [8], the target named is T4, Prostaglandin D2 receptor. Briefly: Effect on the increase in cAMP formation induced by PGD-2 in the presence of bovine serum albumin in CHO cells expressing mouse Prostaglandin D2 receptor. It is filed as functional, cell-based. In general terms: Changes in cAMP serve as a functional read-out for many G protein-coupled receptors.

Sequence of Prostaglandin E2 receptor EP2 subtype (Q62053 whole entry): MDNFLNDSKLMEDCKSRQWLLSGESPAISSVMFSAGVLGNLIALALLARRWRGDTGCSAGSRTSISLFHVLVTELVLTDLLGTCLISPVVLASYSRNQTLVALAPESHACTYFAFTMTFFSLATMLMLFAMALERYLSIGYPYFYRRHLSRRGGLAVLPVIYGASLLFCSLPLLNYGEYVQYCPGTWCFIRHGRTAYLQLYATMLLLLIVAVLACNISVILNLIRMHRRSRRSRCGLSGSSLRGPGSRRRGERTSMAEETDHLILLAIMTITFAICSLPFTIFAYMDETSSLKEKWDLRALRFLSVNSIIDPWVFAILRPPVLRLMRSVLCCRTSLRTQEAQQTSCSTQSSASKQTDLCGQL

Regarding `Cc1cc2c(CC(=O)O)cccc2n1C(=O)c1ccc(OC[C@@H]2COc3ccccc3O2)cc1`, the Ki in [1] is 2000 nM; in test [2], 60 nM; in test [3], more than 10000 nM; in [4], 10 nM; in [5], 10 nM; in [6], more than 10000 nM. The IC50 in test [7] was 30 nM.

As to `Cc1cc2c(CC(=O)O)cccc2n1C(=O)c1ccc(OCC2Cc3ccccc3O2)cc1` (stereo unspecified), the Ki in test [1] was 7800 nM; in [2], 450 nM; in test [3], 980 nM; in test [4] it was 20 nM; in test [5], 20 nM; in [6], more than 10000 nM. Moreover, in [7], the IC50 was 30 nM.

Consider `Cc1cc2c(CC(=O)O)cccc2n1C(=O)c1ccc(OC[C@@H]2CN(C)c3ccc(F)cc3O2)cc1`, for which the inhibition constant (Ki) in test [1] is more than 10000 nM; in test [2], 2100 nM; in test [3] it was 1700 nM; in test [4], 5.3 nM; in test [5], 23 nM; in test [6], more than 10000 nM. Besides, in the test on Cavia porcellus, the inhibition in vivo at 0.3 mg/kg turned out to be 60%. For the same molecule, the IC50 in test [7] was found to be 0.81 nM.

As to `Cc1cc2c(CC(=O)O)cccc2n1C(=O)c1ccc(OCc2ccccc2)cc1`, the Ki in test [1] is 1200 nM; in test [2], 330 nM; in test [3], 1200 nM; in [5], 60 nM; in test [6] it was more than 10000 nM. Also, the IC50 in [8] came out at 1300 nM.

Regarding `Cc1cc2c(CC(=O)O)cccc2n1C(=O)c1ccc(OCC2CCc3ccccc3O2)cc1` (stereo unspecified), the Ki in test [1] is 3800 nM; in test [2] it was 90 nM; in test [3], more than 10000 nM; in test [4], 50 nM; in [5] it was 60 nM; in test [6] it was 3100 nM. Moreover, in [7], the IC50 was 30 nM.

Consider `Cc1cc2c(CC(=O)O)cccc2n1C(=O)c1ccc(OCC2Oc3ccccc3O2)cc1`, for which the Ki in [1] is 780 nM; in test [2], 250 nM; in test [3] it was 750 nM; in test [4], 30 nM; in [5], 9.4 nM; in test [6], more than 10000 nM. Besides, the IC50 in test [7] came out at 50 nM.

As to `CCCCOc1ccc(C(=O)n2c(C)cc3c(CC(=O)O)cccc32)cc1`, the Ki was more than 10000 nM in [1]; 2000 nM in test [2]; 3300 nM in test [3]; 10 nM in [5]; more than 10000 nM in test [6]. Also, the IC50 in [8] worked out at 300 nM.

On to `Cc1cc2c(CC(=O)O)cccc2n1C(=O)c1ccc(OCCCc2ccccc2)cc1`, for which the Ki in test [1] was determined as 7700 nM; in test [3], 3300 nM; in [5], 170 nM; in [6], 2100 nM.

`Cc1cc2c(CC(=O)O)cccc2n1C(=O)c1ccc(OC[C@H]2CN(C)c3ccccc3O2)cc1`: the Ki was more than 10000 nM in test [1]; 410 nM in [2]; more than 10000 nM in [3]; 170 nM in test [4]; 230 nM in test [5]; more than 10000 nM in test [6]. Moreover, in [7], the IC50 is 10 nM.

As for `Cc1cc2c(CC(=O)O)cccc2n1C(=O)c1ccc(OC[C@H]2COc3ccccc3O2)cc1`, the Ki in [1] is 2300 nM; in [2], 1300 nM; in test [3] it was more than 10000 nM; in test [4] it was 130 nM; in test [5], 120 nM; in test [6], 1300 nM. The IC50 in test [7] amounted to 270 nM.

As for `Cc1cc2c(CC(=O)O)cccc2n1C(=O)c1ccc(OCCOc2ccccc2)cc1`, the Ki in [1] is 5600 nM; in test [2], 540 nM; in test [3] it was more than 10000 nM; in test [4], 290 nM; in test [5], 10 nM; in test [6] it was more than 10000 nM. In addition, the IC50 in test [8] is 50 nM; in test [7] it was 250 nM.

With `Cc1cc2c(CC(=O)O)cccc2n1C(=O)c1ccc(OCC2COc3ccccc3C2)cc1` (stereo unspecified), the Ki in test [1] is more than 10000 nM; in [2], 280 nM; in test [3] it was more than 10000 nM; in test [4] it was 390 nM; in test [5], 180 nM; in [6], 3500 nM.

`Cc1cc2c(CC(=O)O)cccc2n1C(=O)c1ccc(OC[C@@H]2CN(C)c3ccccc3O2)cc1`: the Ki in test [1] is 6200 nM; in test [2] it was 100 nM; in test [3] it was 1700 nM; in [4], 3.5 nM; in [5] it was 10 nM; in [6] it was more than 10000 nM. In addition, the IC50 in test [7] was 1.2 nM.

Consider `Cc1cc2c(CC(=O)O)cccc2n1C(=O)c1ccc(OCCc2ccccc2)cc1`, for which the Ki in test [1] came out at 400 nM; in test [2], 1300 nM; in test [3], 2200 nM; in test [6], 1900 nM.
